From patent US20230391768A2, “IMIDAZOPYRIDINE DERIVATIVES AND AZA-IMIDAZOPYRIDINE DERIVATIVES AS JANUS KINASE 2 INHIBITORS AND USES THEREOF” (Dana-Farber Cancer Institute, Inc., priority 2018, published 2023)

Legend:
Assay in all cases: KINOMEscan
Assay type in all cases: binding
Conditions in all cases: read-out: percent of control
ERK1 = ERK1 (Homo sapiens (Human), UniProt P27361)
Protocol: (§1) In vitro profiling of Compound I-2 (1 μM) was performed using the DiscoveRx KINOMEscan® platform.

ULK2 = ULK2 (Homo sapiens (Human), UniProt Q8IYT8)
Protocol: as §1

NLK = NLK (Homo sapiens (Human), UniProt Q9UBE8)
Protocol: as §1

KIT(A829P) = KIT(A829P) (Homo sapiens (Human), UniProt P10721, A829P)
Protocol: as §1

MKNK1 = MKNK1 (Homo sapiens (Human), UniProt Q9BUB5)
Protocol: as §1

ACVR1 = ACVR1 (Homo sapiens (Human), UniProt Q04771)
Protocol: as §1

TLK1 = TLK1 (Homo sapiens (Human), UniProt Q9UKI8)
Chain of TLK1 (Q9UKI8 whole entry): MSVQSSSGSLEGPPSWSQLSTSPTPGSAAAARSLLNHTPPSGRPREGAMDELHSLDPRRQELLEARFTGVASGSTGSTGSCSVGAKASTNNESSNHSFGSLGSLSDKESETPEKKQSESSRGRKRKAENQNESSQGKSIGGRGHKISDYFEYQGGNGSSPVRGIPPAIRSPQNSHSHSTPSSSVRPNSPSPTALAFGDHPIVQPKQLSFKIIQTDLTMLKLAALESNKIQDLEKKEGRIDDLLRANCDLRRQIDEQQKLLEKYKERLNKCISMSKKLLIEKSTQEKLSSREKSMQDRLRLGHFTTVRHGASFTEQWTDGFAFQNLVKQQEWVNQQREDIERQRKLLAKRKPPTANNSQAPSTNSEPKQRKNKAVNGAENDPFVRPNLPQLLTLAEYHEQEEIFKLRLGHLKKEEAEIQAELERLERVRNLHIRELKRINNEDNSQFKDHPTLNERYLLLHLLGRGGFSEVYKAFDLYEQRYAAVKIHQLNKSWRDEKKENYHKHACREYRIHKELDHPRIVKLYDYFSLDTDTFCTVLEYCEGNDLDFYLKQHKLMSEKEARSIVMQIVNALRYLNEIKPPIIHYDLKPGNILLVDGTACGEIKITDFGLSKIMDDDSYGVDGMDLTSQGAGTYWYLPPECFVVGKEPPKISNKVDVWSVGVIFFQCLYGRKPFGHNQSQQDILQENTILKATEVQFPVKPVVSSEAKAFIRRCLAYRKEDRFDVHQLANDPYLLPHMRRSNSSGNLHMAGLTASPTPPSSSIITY
Protocol: as §1

PRKD1 = PRKD1 (Homo sapiens (Human), UniProt Q15139)
Protocol: as §1

PRKCH = PRKCH (Homo sapiens (Human), UniProt P24723)
Protocol: as §1

PRKD2 = PRKD2 (Homo sapiens (Human), UniProt Q9BZL6)
Protocol: as §1

PRKG2 = PRKG2 (Homo sapiens (Human), UniProt Q13237)
Protocol: as §1

BMX = BMX (Homo sapiens (Human), UniProt P51813)
Protocol: as §1

PIK3C2G = PIK3C2G (Homo sapiens (Human), UniProt O75747)
Chain of PIK3C2G (O75747 whole entry): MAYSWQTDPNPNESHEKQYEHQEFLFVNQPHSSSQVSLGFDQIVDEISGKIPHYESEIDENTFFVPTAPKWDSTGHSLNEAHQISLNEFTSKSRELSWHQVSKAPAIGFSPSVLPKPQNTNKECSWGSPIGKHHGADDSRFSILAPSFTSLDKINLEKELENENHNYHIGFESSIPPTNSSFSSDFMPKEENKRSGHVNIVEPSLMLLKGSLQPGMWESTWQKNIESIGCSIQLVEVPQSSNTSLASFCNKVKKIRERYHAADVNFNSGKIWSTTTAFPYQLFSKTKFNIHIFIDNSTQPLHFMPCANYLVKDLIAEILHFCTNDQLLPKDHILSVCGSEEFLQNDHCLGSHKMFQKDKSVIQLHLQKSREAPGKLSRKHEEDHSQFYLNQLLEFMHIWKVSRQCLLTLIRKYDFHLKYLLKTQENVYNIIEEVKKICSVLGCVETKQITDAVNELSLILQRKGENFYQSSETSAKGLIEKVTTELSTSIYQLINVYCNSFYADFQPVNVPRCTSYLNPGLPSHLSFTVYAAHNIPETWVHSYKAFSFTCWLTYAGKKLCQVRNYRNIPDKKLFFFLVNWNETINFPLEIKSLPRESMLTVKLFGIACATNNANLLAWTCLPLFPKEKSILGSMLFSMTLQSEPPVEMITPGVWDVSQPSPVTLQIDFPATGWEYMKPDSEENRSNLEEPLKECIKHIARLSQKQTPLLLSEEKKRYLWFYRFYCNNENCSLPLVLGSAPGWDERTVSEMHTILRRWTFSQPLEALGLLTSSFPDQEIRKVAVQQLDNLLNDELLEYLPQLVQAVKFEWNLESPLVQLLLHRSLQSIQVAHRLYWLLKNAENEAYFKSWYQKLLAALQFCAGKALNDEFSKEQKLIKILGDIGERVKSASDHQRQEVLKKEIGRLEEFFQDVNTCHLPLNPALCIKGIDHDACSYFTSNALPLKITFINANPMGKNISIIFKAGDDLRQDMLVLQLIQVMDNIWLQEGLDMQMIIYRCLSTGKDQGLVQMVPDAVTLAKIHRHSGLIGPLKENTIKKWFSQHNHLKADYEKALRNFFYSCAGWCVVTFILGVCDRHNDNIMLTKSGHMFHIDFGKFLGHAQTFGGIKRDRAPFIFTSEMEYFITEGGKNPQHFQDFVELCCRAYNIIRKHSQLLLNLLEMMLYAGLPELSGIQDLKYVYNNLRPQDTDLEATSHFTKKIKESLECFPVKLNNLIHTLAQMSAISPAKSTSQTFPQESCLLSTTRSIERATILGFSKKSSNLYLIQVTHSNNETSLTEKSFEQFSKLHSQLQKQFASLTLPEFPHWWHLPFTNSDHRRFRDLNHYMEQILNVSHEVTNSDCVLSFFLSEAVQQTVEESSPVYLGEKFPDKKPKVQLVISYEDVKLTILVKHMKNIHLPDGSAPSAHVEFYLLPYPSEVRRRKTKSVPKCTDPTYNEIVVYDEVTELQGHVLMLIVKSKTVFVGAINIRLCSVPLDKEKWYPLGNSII
Protocol: as §1

TYR = TYR (Homo sapiens (Human), UniProt Q06418)
Protocol: as §1

PIK3CA(C420R) = PIK3CA(C420R) (Homo sapiens (Human), UniProt P42336, C420R)
Protocol: as §1

TXK = TXK (Homo sapiens (Human), UniProt P42681)
Protocol: as §1

NEK9 = NEK9 (Homo sapiens (Human), UniProt Q8TD19)
Protocol: as §1

NEK6 = NEK6 (Homo sapiens (Human), UniProt Q9HC98)
Chain of NEK6 (Q9HC98 whole entry): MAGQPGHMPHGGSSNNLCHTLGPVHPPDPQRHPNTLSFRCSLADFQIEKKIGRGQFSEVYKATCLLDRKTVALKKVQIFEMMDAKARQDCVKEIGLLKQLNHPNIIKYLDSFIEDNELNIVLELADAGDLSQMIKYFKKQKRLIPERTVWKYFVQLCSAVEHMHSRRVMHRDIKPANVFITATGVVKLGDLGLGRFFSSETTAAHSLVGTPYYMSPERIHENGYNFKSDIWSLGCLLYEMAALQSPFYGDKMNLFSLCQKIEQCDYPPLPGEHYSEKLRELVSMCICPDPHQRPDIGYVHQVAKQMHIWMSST
Protocol: as §1

PKAC-alpha = PKAC-alpha (Homo sapiens (Human), UniProt P17612)
Protocol: as §1

PLK2 = PLK2 (Homo sapiens (Human), UniProt Q9NYY3)
Protocol: as §1

ADCK3 = ADCK3 (Homo sapiens (Human), UniProt Q8NI60)
Protocol: as §1

GFR(L747-S752del, P753S) = target: GFR(L747-S752del, P753S (Homo sapiens (Human), UniProt P00533, DEL747-752/P753S))
Protocol: as §1

ACVR1B = ACVR1B (Homo sapiens (Human), UniProt P36896)
Protocol: as §1

CDC2L5 = CDC2L5 (Homo sapiens (Human), UniProt Q14004)
Chain of CDC2L5 (Q14004 whole entry, looked up): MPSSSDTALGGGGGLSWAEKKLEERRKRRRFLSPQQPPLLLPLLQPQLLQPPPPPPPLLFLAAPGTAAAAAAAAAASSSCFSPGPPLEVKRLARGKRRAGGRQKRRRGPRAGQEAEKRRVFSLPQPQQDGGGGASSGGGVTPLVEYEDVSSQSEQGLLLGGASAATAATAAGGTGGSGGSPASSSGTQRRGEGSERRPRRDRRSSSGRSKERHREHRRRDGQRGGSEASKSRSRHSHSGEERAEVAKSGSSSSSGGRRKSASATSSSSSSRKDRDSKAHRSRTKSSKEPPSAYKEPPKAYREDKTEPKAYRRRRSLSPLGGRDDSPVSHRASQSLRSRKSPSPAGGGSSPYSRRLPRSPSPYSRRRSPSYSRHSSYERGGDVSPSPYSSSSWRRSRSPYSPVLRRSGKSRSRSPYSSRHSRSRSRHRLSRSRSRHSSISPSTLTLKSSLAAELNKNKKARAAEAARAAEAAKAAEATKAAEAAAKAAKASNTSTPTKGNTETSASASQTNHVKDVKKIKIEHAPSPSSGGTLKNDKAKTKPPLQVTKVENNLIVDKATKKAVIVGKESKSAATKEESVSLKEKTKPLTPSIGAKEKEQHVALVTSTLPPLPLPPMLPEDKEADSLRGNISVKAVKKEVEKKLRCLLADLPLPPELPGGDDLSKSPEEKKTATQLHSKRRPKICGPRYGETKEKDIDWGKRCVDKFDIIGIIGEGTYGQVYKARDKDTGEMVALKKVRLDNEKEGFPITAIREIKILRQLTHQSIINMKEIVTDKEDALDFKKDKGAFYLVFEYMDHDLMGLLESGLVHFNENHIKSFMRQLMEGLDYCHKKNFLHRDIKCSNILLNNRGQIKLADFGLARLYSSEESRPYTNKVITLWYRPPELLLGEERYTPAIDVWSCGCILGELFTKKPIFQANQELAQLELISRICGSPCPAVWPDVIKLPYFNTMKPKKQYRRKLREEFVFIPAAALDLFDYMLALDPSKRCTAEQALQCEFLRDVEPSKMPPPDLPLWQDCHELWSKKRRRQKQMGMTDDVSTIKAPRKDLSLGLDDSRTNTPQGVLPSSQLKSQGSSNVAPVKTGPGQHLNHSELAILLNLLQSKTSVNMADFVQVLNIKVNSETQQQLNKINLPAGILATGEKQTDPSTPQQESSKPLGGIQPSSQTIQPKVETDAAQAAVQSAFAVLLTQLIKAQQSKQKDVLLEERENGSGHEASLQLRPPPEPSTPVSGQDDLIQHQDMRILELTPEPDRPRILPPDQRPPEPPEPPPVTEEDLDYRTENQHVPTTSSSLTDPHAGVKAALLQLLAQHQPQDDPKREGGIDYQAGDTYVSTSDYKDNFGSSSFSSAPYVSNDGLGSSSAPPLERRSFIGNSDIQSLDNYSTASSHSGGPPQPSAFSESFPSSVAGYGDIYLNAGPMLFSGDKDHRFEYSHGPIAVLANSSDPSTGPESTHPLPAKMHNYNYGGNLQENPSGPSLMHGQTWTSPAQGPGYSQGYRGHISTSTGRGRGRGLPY
Protocol: as §1

TAOK1 = TAOK1 (Homo sapiens (Human), UniProt Q7L7X3)
Protocol: as §1

RIPK2 = RIPK2 (Homo sapiens (Human), UniProt O43353)
Protocol: as §1

FLT3 = FLT3 (Homo sapiens (Human), UniProt P36888)
Protocol: as §1

p38-gamma = p38-gamma (Homo sapiens (Human), UniProt P53778)
Protocol: as §1

PRKD3 = PRKD3 (Homo sapiens (Human), UniProt O94806)
Protocol: as §1

CLK1 = CLK1 (Homo sapiens (Human), UniProt P49759)
Protocol: as §1

[1] = target: RSK2 (Kin.Dom.2-C-terminal) (Homo sapiens (Human), UniProt P51812)
Protocol: as §1

[2] = target: RPS6KA4 (Kin.Dom.1-N-terminal) (Homo sapiens (Human), UniProt O75676)
Protocol: as §1

TRKB = TRKB (Homo sapiens (Human), UniProt Q16620)
Protocol: as §1

MYO3B = MYO3B (Homo sapiens (Human), UniProt Q8WXR4)
Protocol: as §1

ACVR2A = ACVR2A (Homo sapiens (Human), UniProt P27037)
Chain of ACVR2A (P27037 20-513): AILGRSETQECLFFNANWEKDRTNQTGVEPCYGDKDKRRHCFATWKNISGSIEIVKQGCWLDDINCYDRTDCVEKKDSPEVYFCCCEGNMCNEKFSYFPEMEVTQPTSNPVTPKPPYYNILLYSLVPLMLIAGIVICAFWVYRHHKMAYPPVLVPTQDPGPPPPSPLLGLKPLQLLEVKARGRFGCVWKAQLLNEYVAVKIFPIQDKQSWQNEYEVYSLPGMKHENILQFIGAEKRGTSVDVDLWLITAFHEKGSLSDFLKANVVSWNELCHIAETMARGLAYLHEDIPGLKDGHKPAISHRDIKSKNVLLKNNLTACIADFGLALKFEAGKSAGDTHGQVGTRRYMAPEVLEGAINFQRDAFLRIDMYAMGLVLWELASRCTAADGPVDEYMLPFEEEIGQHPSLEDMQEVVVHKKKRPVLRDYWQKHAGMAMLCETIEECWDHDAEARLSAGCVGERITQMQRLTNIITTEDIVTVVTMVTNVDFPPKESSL
Protocol: as §1

MST4 = MST4 (Homo sapiens (Human), UniProt Q9P289)
Chain of MST4 (Q9P289 whole entry): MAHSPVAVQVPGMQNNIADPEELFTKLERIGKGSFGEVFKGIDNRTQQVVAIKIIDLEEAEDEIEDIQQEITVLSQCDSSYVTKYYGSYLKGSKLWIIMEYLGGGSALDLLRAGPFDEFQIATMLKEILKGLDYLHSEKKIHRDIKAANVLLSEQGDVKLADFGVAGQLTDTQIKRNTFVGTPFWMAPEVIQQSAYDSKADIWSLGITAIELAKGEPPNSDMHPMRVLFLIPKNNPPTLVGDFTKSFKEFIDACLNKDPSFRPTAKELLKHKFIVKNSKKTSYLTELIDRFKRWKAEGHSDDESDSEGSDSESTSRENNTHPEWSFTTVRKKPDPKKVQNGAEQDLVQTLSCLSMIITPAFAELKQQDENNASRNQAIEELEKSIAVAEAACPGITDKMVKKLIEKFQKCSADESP
Protocol: as §1

MARK2 = MARK2 (Homo sapiens (Human), UniProt Q7KZI7)
Protocol: as §1

FLT3 (K663Q) = FLT3 (K663Q) (Homo sapiens (Human), UniProt P36888, K663Q)
Protocol: as §1

Row | Compound | remaining binding at 1 µM (ERK1) [%] | remaining binding at 1 µM (ULK2) [%] | remaining binding at 1 µM (NLK) [%] | remaining binding at 1 µM (KIT(A829P)) [%] | remaining binding at 1 µM (MKNK1) [%] | remaining binding at 1 µM (ACVR1) [%] | remaining binding at 1 µM (TLK1) [%] | remaining binding at 1 µM (PRKD1) [%] | remaining binding at 1 µM (PRKCH) [%] | remaining binding at 1 µM (PRKD2) [%] | remaining binding at 1 µM (PRKG2) [%] | remaining binding at 1 µM (BMX) [%] | remaining binding at 1 µM (PIK3C2G) [%] | remaining binding at 1 µM (TYR) [%] | remaining binding at 1 µM (PIK3CA(C420R)) [%] | remaining binding at 1 µM (TXK) [%] | remaining binding at 1 µM (NEK9) [%] | remaining binding at 1 µM (NEK6) [%] | remaining binding at 1 µM (PKAC-alpha) [%] | remaining binding at 1 µM (PLK2) [%] | other results
1 | CCN1CCN(Cc2cc(NC(=O)c3ccc(C)c(-c4ccc5nc(NC(=O)C6CC6)cn5n4)c3)cc(C(F)(F)F)c2)CC1 [Compound I-2, 3-(2-(cyclopropanecarboxamido)imidazo[1,2-b]pyridazin-6-yl)-N-(3-((4-ethylpiperazin-1-yl)methyl)-5-(trifluoromethyl)phenyl)-4-methylbenzamide] | 95 | 100 | 95 | 0 | 76 | 100 | 100 | 93 | 86 | 97 | 100 | 65 | 92 | 26 | 85 | 16 | 100 | 100 | 75 | 90 | remaining binding at 1 µM (ADCK3): 97%; remaining binding at 1 µM (GFR(L747-S752del, P753S)): 19%; remaining binding at 1 µM (ACVR1B): 99%; remaining binding at 1 µM (CDC2L5): 0.3%; remaining binding at 1 µM (TAOK1): 3.9%; remaining binding at 1 µM (RIPK2): 89%; remaining binding at 1 µM (FLT3): 1%; remaining binding at 1 µM (p38-gamma): 0%; remaining binding at 1 µM (PRKD3): 100%; remaining binding at 1 µM (CLK1): 7.9%; remaining binding at 1 µM [1]: 78%; remaining binding at 1 µM [2]: 50%; remaining binding at 1 µM (TRKB): 0.05%; remaining binding at 1 µM (MYO3B): 80%; remaining binding at 1 µM (ACVR2A): 63%; remaining binding at 1 µM (MST4): 92%; remaining binding at 1 µM (MARK2): 96%; remaining binding at 1 µM (FLT3 (K663Q)): 5.6%
2 | CCN1CCN(Cc2cc(NC(=O)c3ccc(C)c(-c4ccc5nc(NC(=O)C6CC6)cn5c4)c3)cc(C(F)(F)F)c2)CC1 [Compound I-6, 3-(2-(cyclopropanecarboxamido)imidazo[1,2-a]pyridin-6-yl)-N-(3-((4-ethylpiperazin-1-yl)methyl)-5-(trifluoromethyl)phenyl)-4-methylbenzamide] | 100 | 100 | 100 | 12 | 91 | 100 | 97 | 87 | 100 | 100 | 99 | 42 | 95 | 47 | 95 | 19 | 92 | 100 | 97 | 96 | remaining binding at 1 µM (ADCK3): 96%; remaining binding at 1 µM (GFR(L747-S752del, P753S)): 12%; remaining binding at 1 µM (ACVR1B): 94%; remaining binding at 1 µM (CDC2L5): 0.75%; remaining binding at 1 µM (TAOK1): 4.5%; remaining binding at 1 µM (RIPK2): 35%; remaining binding at 1 µM (FLT3): 2.5%; remaining binding at 1 µM (p38-gamma): 9.4%; remaining binding at 1 µM (PRKD3): 90%; remaining binding at 1 µM (CLK1): 20%; remaining binding at 1 µM [1]: 100%; remaining binding at 1 µM [2]: 66%; remaining binding at 1 µM (TRKB): 0%; remaining binding at 1 µM (MYO3B): 49%; remaining binding at 1 µM (ACVR2A): 100%; remaining binding at 1 µM (MST4): 100%; remaining binding at 1 µM (MARK2): 78%; remaining binding at 1 µM (FLT3 (K663Q)): 4.2%
